ChEMBL document CHEMBL1201862, “PubChem BioAssay data set” (2004)
Each block holds one compound with its values, some of them ahead of it. Active and inactive are the calls of the source.

Key:
[1] = test system: Candida albicans; test: growth inhibition of azole-resistant C. albicans, dose response, CaCi-8 strain, Alamar Blue, dry powder, set 2 (AID 488909); format: functional, organism-based
[2] = test system: Candida albicans; test: reversal of fluconazole resistance in C. albicans, dose response, CaCi-2 strain, Alamar Blue, dry powder, set 3 (AID 488907); format: functional, organism-based
[3] = molecular target: T1, Short transient receptor potential channel 4 (Mus musculus, UniProt Q9QUQ5); test: SAR Analysis for the identification of selective inhibits of the transient receptor potential cation channel C4 (TRPC4): Automated Electrophysiology_2. [Related pubchem assays (depositor defined):AID2256]; format: functional
T1 sequence (Q9QUQ5 whole entry): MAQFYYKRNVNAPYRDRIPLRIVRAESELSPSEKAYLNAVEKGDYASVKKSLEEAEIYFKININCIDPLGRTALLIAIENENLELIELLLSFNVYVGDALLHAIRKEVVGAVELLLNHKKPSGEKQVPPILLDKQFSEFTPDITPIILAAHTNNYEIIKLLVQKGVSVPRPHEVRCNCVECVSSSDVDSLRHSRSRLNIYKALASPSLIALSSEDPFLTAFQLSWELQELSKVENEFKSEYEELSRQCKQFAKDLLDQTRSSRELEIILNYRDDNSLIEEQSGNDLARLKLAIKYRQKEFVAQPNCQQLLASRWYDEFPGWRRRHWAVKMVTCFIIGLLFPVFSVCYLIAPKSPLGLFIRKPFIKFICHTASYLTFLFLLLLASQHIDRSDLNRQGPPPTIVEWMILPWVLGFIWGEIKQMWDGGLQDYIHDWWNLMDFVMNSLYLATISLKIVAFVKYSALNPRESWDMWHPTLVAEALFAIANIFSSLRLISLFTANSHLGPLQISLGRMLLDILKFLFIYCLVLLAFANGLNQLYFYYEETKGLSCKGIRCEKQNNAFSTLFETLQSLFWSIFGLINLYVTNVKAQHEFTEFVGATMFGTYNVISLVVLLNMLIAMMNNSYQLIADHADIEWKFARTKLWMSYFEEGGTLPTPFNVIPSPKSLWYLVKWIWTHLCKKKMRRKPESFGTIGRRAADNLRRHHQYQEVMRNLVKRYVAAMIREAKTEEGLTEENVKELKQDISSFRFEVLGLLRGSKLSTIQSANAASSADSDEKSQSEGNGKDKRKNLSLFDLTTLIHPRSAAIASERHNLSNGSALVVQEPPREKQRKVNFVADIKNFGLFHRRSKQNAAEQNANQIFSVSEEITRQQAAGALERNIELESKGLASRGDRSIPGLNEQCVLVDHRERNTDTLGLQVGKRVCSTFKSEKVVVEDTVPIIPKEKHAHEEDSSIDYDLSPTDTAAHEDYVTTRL

[4] = molecular target: T1, Short transient receptor potential channel 4; test: TRPC4 inhibitor concentration-response, dose response, cell-based, HEK293 TRPC4/mu-opioid, DAMGO stimulus, Fluo-4 (AID 492994); format: functional
[5] = molecular target: T2, Nuclear receptor subfamily 0 group B member 1 (Homo sapiens, UniProt P51843); test: Luminescence-based cell-based high throughput dose response assay for inhibitors of the orphan nuclear receptor subfamily 0, group B, member 1 (DAX1; NR0B1). [Related pubchem assays (depositor defined):AID504766, AID504790]; format: functional
T2 sequence (P51843 whole entry): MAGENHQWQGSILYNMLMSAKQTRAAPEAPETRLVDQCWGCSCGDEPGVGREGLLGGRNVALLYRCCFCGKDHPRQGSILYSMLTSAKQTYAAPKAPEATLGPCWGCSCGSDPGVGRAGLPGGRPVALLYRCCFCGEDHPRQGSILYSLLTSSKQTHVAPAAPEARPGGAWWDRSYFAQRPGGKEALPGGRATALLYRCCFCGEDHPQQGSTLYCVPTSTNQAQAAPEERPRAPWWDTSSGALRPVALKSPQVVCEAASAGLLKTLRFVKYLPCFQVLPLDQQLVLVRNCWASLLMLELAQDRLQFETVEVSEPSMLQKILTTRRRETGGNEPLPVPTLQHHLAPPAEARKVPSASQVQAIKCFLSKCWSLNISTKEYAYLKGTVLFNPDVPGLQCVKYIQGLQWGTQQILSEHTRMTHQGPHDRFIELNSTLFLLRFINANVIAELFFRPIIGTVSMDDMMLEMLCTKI

[6] = test system: HEK293; test: cells; format: functional, cell-based; conditions: Homo sapiens

SMILES: CC(C)C(=O)N1CCN(c2ccnc3cc(Cl)ccc23)CC1
AC50 [1]: < 0.195 µM (active)
AC50 [2]: 3.03 µM (active)

IC50 [3]: 11.9 µM (active)
IC50 [4]: 12.6 µM (active)
SMILES: Cc1cc(N2CC(C)CC(C)C2)nc2ccccc12 (stereo unspecified)

SMILES: Cc1cc(OCC(=O)N2CCC(C(N)=O)CC2)c2c(C)cc(=O)oc2c1
IC50 [5]: > 67.6 µM (inactive)
IC50 [6]: > 67.6 µM (inactive)
